Drawing on patent US8017612B2, “Piperazine compound and use thereof as a HCV polymerase inhibitor” (priority 2006, dated 2011), this text covers IC50 for 22 compounds.

Test [1] concerns the target T1, HCV polymerase (NS5B) type 1a (Hepatitis C virus genotype 1a, UniProt P26664).
T1 construct: made in house; host or cells: Escherichia coli (by the 'similar method' of the 1b enzyme)
The experiment in a line: Assay of enzyme (HCV polymerase) inhibitory activity, type 1a enzyme. The class given is biochemical, HCV type 1a (cloned from the blood of patients). Put shortly: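 Patient-derived type 1a NS5B (C-terminal 47-aa deletion, His-tagged, E. coli-expressed) at 1.5 μg/ml was reacted with 5 μg/ml 3′UTR-containing substrate RNA, 50 μM ATP/GTP/CTP, 2 μM UTP plus [3H]UTP, pH 7.5, 25° C for 60 min. TCA-precipitated RNA radioactivity was counted; IC50 from ± compound.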

Test [2] has as its target T2, HCV polymerase (NS5B) type 1b (Hepatitis C virus genotype 1b, UniProt P26663).
T2 construct: a region encoding NS5B (J Virol 1991 March, 65(3), 1105-13, 544 amino acids after deletion of 47 amino acids on the C-terminal); 6xHis (C); made in house; host or cells: Escherichia coli
The experiment in a line: Assay of enzyme (HCV polymerase) inhibitory activity, type 1b enzyme. The test is classed as biochemical, HCV BK strain (type 1b). Put shortly:
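NS5B from HCV BK strain (type 1b), C-terminal 47 aa deleted, C-terminal His6-tagged, E. coli-expressed, 0.5 μg/ml, with ~450 nt substrate RNA carrying the 3′ UTR (polyU, 3′X) at 5 μg/ml. Incubation 60 min at 25 °C with 50 μM ATP/GTP/CTP, 2 μM UTP plus [3H]UTP, pH 7.5 Tris.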

Setting [3] is: HCV polymerase inhibitory activity (IC50), 1a, type 1a enzyme 1.5 μg/ml, 25° C., 60 min.
The mark [4] stands for this setting: HCV polymerase inhibitory activity (IC50), 1b, type 1b enzyme 0.5 μg/ml, 25° C., 60 min.
[5] abbreviates: HCV polymerase inhibitory activity IC50, 1a, type 1a enzyme.
Where [6] appears, read: HCV polymerase inhibitory activity IC50, 1b, type 1b enzyme.

The IC50 is the point on the concentration scale where inhibition reaches its midpoint.

Regarding `CN(C)c1ccc(CNC(=O)C2CN(C(=O)CNC(=O)OC(C)(C)C)CCN2S(=O)(=O)c2ccc(I)cc2)cc1` (centres unmarked) [Example 86, {2-[3-(4-dimethylamino-benzylcarbamoyl)-4-(4-iodo-benzenesulfonyl)-piperazin-1-yl]-2-oxo-ethyl}-carbamic acid tert-butyl ester], the IC50 in test [1] (setting [3]) and in test [2] (setting [4]) was greater than 1000 nM throughout.
In the case of `N#Cc1cncc2ncc(N3CCN(S(=O)(=O)c4ccc(OC(F)(F)F)cc4)[C@@H](C(=O)NCc4ccc(OC(F)(F)F)cc4)C3)nc12` [Example 872, (R)-4-(8-cyano-pyrido[3,4-b]pyrazin-2-yl)-1-(4-trifluoromethoxy-benzenesulfonyl)-piperazine-2-carboxylic acid 4-trifluoromethoxy-benzylamide], the IC50 in test [1] (setting [5]) and in test [2] (setting [6]) was less than 100 nM each time.
`CC(C)(O)c1ncc2sc(N3CCN(S(=O)(=O)c4ccc(C(F)(F)F)cc4)[C@@H](C(=O)NCc4ccc(OC(F)(F)F)cc4)C3)nc2n1` [Example 1075, (R)-4-[5-(1-hydroxy-1-methyl-ethyl)-thiazolo[4,5-d]pyrimidin-2-yl]-1-(4-trifluoromethyl-benzenesulfonyl)-piperazine-2-carboxylic acid 4-trifluoromethoxy-benzylamide]: the IC50 in test [1] (setting [5]) and in test [2] (setting [6]) was less than 100 nM in each case.
Take `COC(=O)c1ccc(CNC(=O)C2CN(C(C)=O)CCN2S(=O)(=O)c2ccc(C(C)C)cc2)cc1` (centres unmarked) [Example 76, 4-({[4-acetyl-1-(4-isopropyl-benzenesulfonyl)-piperazine-2-carbonyl]-amino}-methyl)-benzoic acid methyl ester]: the IC50 in test [1] (setting [3]) and in test [2] (setting [4]) was greater than 1000 nM each time.
As to `CC(=O)N1CCN(S(=O)(=O)c2ccc(OC(C)C)cc2)C(C(=O)NCc2ccc(C(F)(F)F)cc2)C1` (centres unmarked) [Example 83, 4-acetyl-1-(4-isopropoxy-benzenesulfonyl)-piperazine-2-carboxylic acid 4-trifluoromethyl-benzylamide], the IC50 in test [1] (setting [3]) and in test [2] (setting [4]) was greater than 1000 nM in each case.
As for `CC(C)c1ccc(CNC(=O)[C@H]2CN(c3nc(N)n[nH]3)CCN2S(=O)(=O)c2ccc(C(F)(F)F)cc2)cc1` [Example 368, (R)-4-(5-amino-2H-[1,2,4]triazol-3-yl)-1-(4-trifluoromethyl-benzenesulfonyl)-piperazine-2-carboxylic acid 4-isopropyl-benzylamide], the values for the IC50 in test [1] (setting [3]) and in test [2] (setting [4]) were greater than 1000 nM and 100 to 1000 nM, respectively.
Regarding `CCN(CC)c1ccc(CNC(=O)[C@H]2CN(c3nc(C)c(C(=O)O)s3)CCN2S(=O)(=O)c2ccc(OC(F)(F)F)cc2)cc1` [Example 425, 2-[(R)-3-(4-diethylamino-benzylcarbamoyl)-4-(4-trifluoromethoxy-benzenesulfonyl)-piperazin-1-yl]-4-methyl-thiazole-5-carboxylic acid], the IC50 in test [1] (setting [3]) and in test [2] (setting [4]) was less than 100 nM in each case.
Regarding `CCC(F)(F)c1ccc(CNC(=O)[C@H]2CN(c3cnc4cncnc4n3)CCN2S(=O)(=O)c2ccc3c(c2)CCC(CC(=O)O)CC3)cc1` (stereo partly drawn) [Example 729, (2-{(R)-2-[4-(1,1-difluoro-propyl)-benzylcarbamoyl]-4-pteridin-7-yl-piperazine-1-sulfonyl}-6,7,8,9-tetrahydro-5H-benzocyclohepten-7-yl)-acetic acid], the IC50 in test [1] (setting [5]) and in test [2] (setting [6]) was less than 100 nM each time.
As to `O=C(NCc1ccc(OC(F)(F)F)cc1)[C@H]1CN(c2nn3c(=O)cc(C(F)(F)F)nc3s2)CCN1S(=O)(=O)c1ccc(OC(F)(F)F)cc1` [Example 1038, (R)-4-(5-oxo-7-trifluoromethyl-5H-[1,3,4]thiadiazolo[3,2-a]pyrimidin-2-yl)-1-(4-trifluoromethoxy-benzenesulfonyl)-piperazine-2-carboxylic acid 4-trifluoromethoxy-benzylamide], the IC50 in test [1] (setting [5]) and in test [2] (setting [6]) was 100 to 1000 nM in each case.
As for `Cc1nc(N2CCN(S(=O)(=O)c3ccc(OC(F)(F)F)cc3)[C@@H](C(=O)NCc3ccc(C(C)C)nc3)C2)sc1C(=O)O` [Example 13, 2-[(R)-3-[(6-isopropyl-pyridin-3-ylmethyl)-carbamoyl]-4-(4-trifluoromethoxy-benzenesulfonyl)-piperazin-1-yl]-4-methyl-thiazole-5-carboxylic acid], the IC50 in test [1] (setting [3]) and in test [2] (setting [4]) was less than 100 nM throughout.
As for `CC(C)(C)c1ccc(CNC(=O)[C@H]2CN(c3cnc(CO)cn3)CCN2S(=O)(=O)c2ccc(OC(F)(F)F)cc2)cc1` [Example 545, (R)-5′-hydroxymethyl-4-(4-trifluoromethoxy-benzenesulfonyl)-3,4,5,6-tetrahydro-2H-[1,2′]bipyrazinyl-3-carboxylic acid 4-tert-butyl-benzylamide], the IC50 in test [1] (setting [3]) and in test [2] (setting [4]) was less than 100 nM each time.
Regarding `CC(=O)N1CCN(S(=O)(=O)c2ccc(C(C)C)cc2)[C@@H](C(=O)NCCc2ccncc2)C1` [Example 395, (R)-4-acetyl-1-(4-isopropyl-benzenesulfonyl)-piperazine-2-carboxylic acid (2-pyridin-4-yl-ethyl)-amide], the IC50 in test [1] (setting [3]) and in test [2] (setting [4]) was greater than 1000 nM each time.
Consider `CC(=O)N1CCN(S(=O)(=O)c2ccc(OC(F)(F)F)cc2)[C@@H](C(=O)NCc2cccc(O)c2)C1` [Example 637, (R)-4-acetyl-1-(4-trifluoromethoxy-benzenesulfonyl)-piperazine-2-carboxylic acid 3-hydroxy-benzylamide], for which the IC50 in test [1] (setting [3]) and in test [2] (setting [4]) was greater than 1000 nM throughout.
Take `COCC(=O)N1CCN(S(=O)(=O)c2ccc(C(C)C)cc2)C(C(=O)NCc2ccc(C(F)(F)F)cc2)C1` (centres unmarked) [Example 57, 1-(4-isopropyl-benzenesulfonyl)-4-(2-methoxy-acetyl)-piperazine-2-carboxylic acid 4-trifluoromethyl-benzylamide]: the IC50 in test [1] (setting [3]) and in test [2] (setting [4]) was greater than 1000 nM in each case.
With `O=C(NCc1ccc(OC(F)(F)F)cc1)[C@H]1CN(c2cnc3ncccc3n2)CCN1S(=O)(=O)c1ccc(OC(F)(F)F)cc1` [Example 769, (R)-4-pyrido[2,3-b]pyrazin-2-yl-1-(4-trifluoromethoxy-benzenesulfonyl)-piperazine-2-carboxylic acid 4-trifluoromethoxy-benzylamide], the IC50 in test [1] (setting [5]) and in test [2] (setting [6]) was less than 100 nM each time.
Consider `COc1ccc(CNC(=O)[C@H]2CN(C(C)=O)CCN2S(=O)(=O)c2ccc(OC(F)(F)F)cc2)cc1O` [Example 645, (R)-4-acetyl-1-(4-trifluoromethoxy-benzenesulfonyl)-piperazine-2-carboxylic acid 3-hydroxy-4-methoxy-benzylamide], for which the IC50 in test [1] (setting [3]) and in test [2] (setting [4]) was greater than 1000 nM throughout.
On to `O=C(NCc1ccc(OC(F)F)c(F)c1)[C@H]1CN(c2nc3nc(C4CC4)ncc3s2)CCN1S(=O)(=O)c1ccc(C(F)(F)F)cc1` [Example 1074, (R)-4-(5-cyclopropyl-thiazolo[4,5-d]pyrimidin-2-yl)-1-(4-trifluoromethyl-benzenesulfonyl)-piperazine-2-carboxylic acid 4-difluoromethoxy-3-fluoro-benzylamide], for which the IC50 in test [1] (setting [5]) and in test [2] (setting [6]) was less than 100 nM throughout.
As to `CCC(F)(F)c1ccc(CNC(=O)[C@H]2CN(c3nc4nc(C)[nH]c(=O)c4s3)CCN2S(=O)(=O)c2ccc(OC(F)(F)F)cc2)cc1` [Example 911, (R)-4-(5-methyl-7-oxo-6,7-dihydro-thiazolo[4,5-d]pyrimidin-2-yl)-1-(4-trifluoromethoxy-benzenesulfonyl)-piperazine-2-carboxylic acid 4-(1,1-difluoro-propyl)-benzylamide], the IC50 in test [1] (setting [5]) and in test [2] (setting [6]) was less than 100 nM in each case.
Take `CCCc1ccc(S(=O)(=O)N2CCN(c3nc(COC)c(C(=O)O)s3)C[C@@H]2C(=O)NCc2ccc(C(C)C)cc2)cc1` [Example 394, 2-[(R)-3-(4-isopropyl-benzylcarbamoyl)-4-(4-propyl-benzenesulfonyl)-piperazin-1-yl]-4-methoxymethyl-thiazole-5-carboxylic acid]: the IC50 in test [1] (setting [3]) and in test [2] (setting [4]) was less than 100 nM each time.
As for `CC(=O)N1CCN(S(=O)(=O)c2ccc(OC(F)(F)F)c(C(=O)O)c2)[C@@H](C(=O)NCc2ccc(C(C)C)cc2)C1` [Example 305, 5-[(R)-4-acetyl-2-(4-isopropyl-benzylcarbamoyl)-piperazine-1-sulfonyl]-2-trifluoromethoxy-benzoic acid], the IC50 was 100 to 1000 nM in test [1] (setting [3]) and less than 100 nM in test [2] (setting [4]).
In the case of `CC(=O)N1CCN(S(=O)(=O)c2ccc(C(C)C)cc2)[C@@H](C(=O)NCc2ccc(C(C)(C)C(=O)O)cc2)C1` [Example 231, 2-[4-({[(R)-4-acetyl-1-(4-isopropyl-benzenesulfonyl)-piperazine-2-carbonyl]-amino}-methyl)-phenyl]-2-methyl-propionic acid], the IC50 in test [1] (setting [3]) and in test [2] (setting [4]) was greater than 1000 nM each time.
For the compound `Cc1nc(N2CCN(S(=O)(=O)c3ccc4c(c3)CCCCC4)[C@@H](C(=O)NCc3ccc(C(C)C)cc3)C2)sc1C(=O)O` [Example 381, 2-[(R)-3-(4-isopropyl-benzylcarbamoyl)-4-(6,7,8,9-tetrahydro-5H-benzocycloheptene-2-sulfonyl)-piperazin-1-yl]-4-methyl-thiazole-5-carboxylic acid], the IC50 in test [1] (setting [3]) and in test [2] (setting [4]) was less than 100 nM throughout.
